Results published in article PMC9602792, “Preclinical evaluation of the epithelial sodium channel inhibitor AZD5634 and implications on human translation” (American Journal of Physiology - Lung Cellular and …, 2022).

Molecular target: T1, ENaC (Homo sapiens, UniProt P37088+P51168+P51170)
T1 construct: host or cells: primary normal human bronchial epithelial cells, ALI culture
T1 sequence (P37088 1-669): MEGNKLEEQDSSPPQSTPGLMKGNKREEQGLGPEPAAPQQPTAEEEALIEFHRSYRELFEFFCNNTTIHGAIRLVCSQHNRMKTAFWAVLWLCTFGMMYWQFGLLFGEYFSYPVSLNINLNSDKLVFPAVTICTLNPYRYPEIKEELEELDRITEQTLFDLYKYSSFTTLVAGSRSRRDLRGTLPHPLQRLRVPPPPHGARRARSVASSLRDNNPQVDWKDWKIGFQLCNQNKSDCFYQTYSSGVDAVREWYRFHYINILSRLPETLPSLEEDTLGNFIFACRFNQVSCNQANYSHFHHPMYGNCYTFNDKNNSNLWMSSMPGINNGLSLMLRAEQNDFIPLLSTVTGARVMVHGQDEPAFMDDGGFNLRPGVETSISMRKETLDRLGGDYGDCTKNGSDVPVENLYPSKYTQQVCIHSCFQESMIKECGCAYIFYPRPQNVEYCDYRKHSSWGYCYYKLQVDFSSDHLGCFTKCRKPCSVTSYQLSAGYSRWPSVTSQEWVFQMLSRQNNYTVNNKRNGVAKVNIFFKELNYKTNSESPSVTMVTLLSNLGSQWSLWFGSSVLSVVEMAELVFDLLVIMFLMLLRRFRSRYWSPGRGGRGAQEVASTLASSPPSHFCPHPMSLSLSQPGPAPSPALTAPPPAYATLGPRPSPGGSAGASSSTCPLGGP
T1 sequence (P51168 1-640): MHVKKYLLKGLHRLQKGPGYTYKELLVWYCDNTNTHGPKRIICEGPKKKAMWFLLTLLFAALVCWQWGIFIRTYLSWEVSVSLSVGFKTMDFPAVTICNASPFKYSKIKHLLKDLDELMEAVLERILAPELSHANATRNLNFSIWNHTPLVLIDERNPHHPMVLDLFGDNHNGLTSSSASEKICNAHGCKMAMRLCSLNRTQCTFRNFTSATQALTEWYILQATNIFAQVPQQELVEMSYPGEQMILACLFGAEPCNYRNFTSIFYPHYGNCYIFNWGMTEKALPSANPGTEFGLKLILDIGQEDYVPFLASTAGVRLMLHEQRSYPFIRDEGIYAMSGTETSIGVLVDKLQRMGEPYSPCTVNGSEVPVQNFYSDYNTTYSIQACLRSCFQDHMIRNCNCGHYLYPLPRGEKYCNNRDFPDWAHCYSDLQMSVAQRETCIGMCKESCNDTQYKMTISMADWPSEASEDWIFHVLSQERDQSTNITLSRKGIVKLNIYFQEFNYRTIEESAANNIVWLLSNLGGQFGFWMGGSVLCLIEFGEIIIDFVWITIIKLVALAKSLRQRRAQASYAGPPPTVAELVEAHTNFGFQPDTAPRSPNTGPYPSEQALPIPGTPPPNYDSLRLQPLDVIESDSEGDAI
T1 sequence (P51170 1-649): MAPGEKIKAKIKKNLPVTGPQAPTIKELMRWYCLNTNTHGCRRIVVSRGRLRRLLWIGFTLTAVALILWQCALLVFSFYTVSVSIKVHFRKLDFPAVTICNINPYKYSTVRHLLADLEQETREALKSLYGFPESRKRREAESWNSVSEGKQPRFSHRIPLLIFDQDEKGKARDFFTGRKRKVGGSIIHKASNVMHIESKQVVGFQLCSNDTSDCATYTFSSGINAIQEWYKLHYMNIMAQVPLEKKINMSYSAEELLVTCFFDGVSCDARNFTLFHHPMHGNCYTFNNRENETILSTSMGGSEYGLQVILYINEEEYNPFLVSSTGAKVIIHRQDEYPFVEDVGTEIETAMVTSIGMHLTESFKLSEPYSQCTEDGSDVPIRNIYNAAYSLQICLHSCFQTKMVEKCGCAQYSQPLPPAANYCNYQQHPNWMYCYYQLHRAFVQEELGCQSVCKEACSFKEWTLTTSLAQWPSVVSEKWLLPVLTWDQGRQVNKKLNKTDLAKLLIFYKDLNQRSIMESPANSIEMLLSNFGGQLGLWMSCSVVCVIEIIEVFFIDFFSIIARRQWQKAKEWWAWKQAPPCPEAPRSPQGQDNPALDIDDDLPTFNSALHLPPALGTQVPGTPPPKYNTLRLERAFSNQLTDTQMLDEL
Test: Ussing chamber Isc in F508del-homozygous CF HBEC cultures
Type: cell-based
Procedure: Using previously described techniques ([2], [37]), epithelial cells were harvested from excised lung tissue derived from CF donors homozygous for F508del CFTR, expanded, and grown until confluency was attained. […] To stimulate fresh mucus secretion and formation of an even ASL layer, the cells were washed 48–72 h before experimentation with PneumaCult ALI media (80 µL), added apically, and then aspirated following 30–45 min incubation at 37°C. The washing process was repeated with a 15-min incubation period and the mucus layer was allowed to reestablish, after which the cells were treated with 1 µL of AZD5634 (1 µM, apical), alone and in combination with lumacaftor and ivacaftor (luma/iva; 3 µM/10 µM, basolateral). PBS (1% DMSO, apical) served as a vehicle control. […] Only passage 1 and 2 monolayers were used for these studies.
CFTR-dependent ion transport electrophysiology was measured in HBEC cultures by Isc using modified P2300 Ussing chambers (Physiologic Instruments, San Diego, CA) as previously described ([37], [38]). […] All chambers were maintained at 37°C and agonist stimulation was initiated within 15 min of placement in the chambers.
Descriptive statistics were calculated and means compared using unpaired or paired t tests, or ANOVA, with post hoc analyses conducted for multiple comparisons where appropriate. For analyses of functional anatomy of en bloc trachea, a mixed linear model was used that corrected for within-animal correlation. All tests were two-sided and were computed using GraphPad Prism (GraphPad Software, Inc., La Jolla, CA). P-values <0.05 were considered significant. Statistics are reported as means ± SE, unless indicated otherwise.

NC(=NCc1ccccc1)NC(=O)c1nc(Cl)c(N)nc1N [benzamil, reference compound]
incremental Isc change (at 100 nM): −2.7 ± 1.5
cumulative ΔIsc (at the maximum concentration (10,000 nM)): −12.1 ± 3.5
